Measurements as given in PubChem BioAssay AID1552 (Sanford-Burnham Center for Chemical Genomics, 2009).
The source made the active and inactive calls. The rule behind the calls is not given here.

Biological target: Ubiquitin-conjugating enzyme E2 N (Homo sapiens) (UniProt P61088)
Assay: NMR detection of UBE2N ligand binding – biophysical, purified protein (AID 1552)
Conditions: NMR binding to purified UBE2N

Sequence of Ubiquitin-conjugating enzyme E2 N (Homo sapiens) (P61088 whole entry, looked up): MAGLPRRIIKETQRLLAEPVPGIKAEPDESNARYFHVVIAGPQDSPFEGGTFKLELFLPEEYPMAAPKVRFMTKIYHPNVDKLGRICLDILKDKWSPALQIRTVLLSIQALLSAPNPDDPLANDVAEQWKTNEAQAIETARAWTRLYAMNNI

Structure (SMILES) | Kd
Cc1c(O)c(O)cc2c1CC=C1[C@@]2(C)CC[C@@]2(C)C3C[C@](C)(C(=O)O)CC[C@]3(C)CC[C@]12C (stereo not given in full) | > 4 mM (inactive)
C=C[C@H]1CN2CC[C@H]1C[C@@H]2[C@@H](O)c1ccnc2ccc(OC)cc12 | > 4 mM (inactive)
CC(Sc1ncn[nH]1)C(=O)O (stereo not given) | > 4 mM (inactive)
Nc1cccc(-n2cccc2)c1 | > 4 mM (inactive)
Cc1ccc(-n2cnnn2)c2cccnc12 | > 4 mM (inactive)
CC(C)(OC(=O)c1ccccc1)[C@@H]1Cc2cc3ccc(=O)oc3cc2O1 | > 4 mM (inactive)
O=C(Nc1ccc2c(c1)OCO2)c1cccc(F)c1 | > 4 mM (inactive)
O=C(NN1C(=O)CSC1=S)c1ccccc1 | > 4 mM (inactive)
COC(=O)C[C@@H]1C2(C)C(=O)[C@@H](CC3C2CC[C@]2(C)C3CC(=O)O[C@H]2c2ccoc2)[C@H](OC(C)=O)C1(C)C (stereo not given in full) | > 4 mM (inactive)
O=c1nc(N2CCCCC2)nc2n1CCO2 | > 4 mM (inactive)
O=c1[nH]c(NCCO)nnc1Cc1ccccc1 | > 4 mM (inactive)
O=C1c2ccccc2C(=O)N1OCc1ccccc1 | > 4 mM (inactive)
Cc1ccsc1/C=c1\sc2ncnn2c1=O | > 4 mM (inactive)
Cn1nnc2c(Cl)ncnc21 | > 4 mM (inactive)
Nc1cccc(-c2cnco2)c1 | > 4 mM (inactive)
Cc1nnc(SCC(=O)N2CCCCC2)s1 | > 4 mM (inactive)
COc1ccc([C@@H](C)C(=O)c2ccc(O)cc2O)cc1 | > 4 mM (inactive)
CC(=O)Nc1ccc2c(c1)CCCC2=O | > 4 mM (inactive)
NC1=NC(=O)/C(=C/c2ccc(O)c(Cl)c2)S1 | > 4 mM (inactive)
Nc1ncnc(NCCCO)c1[N+](=O)[O-] | > 4 mM (inactive)
CN1CCN(c2ccc(CN)cc2)CC1 | > 4 mM (inactive)
O=C(O)/C=C/C=C/c1ccccc1 | > 4 mM (inactive)

Structure (SMILES) | Kd
Cc1[nH]n(-c2ccccc2)c(=O)c1[N+](=O)[O-] | > 4 mM (inactive)
CC(=O)NC(C)(C)C1CC=C(C)/C(=N\O)C1 (stereo not given) | > 4 mM (inactive)
CC(=O)O[C@H]1C[C@@]2(C)[C@@H](C[C@@H](O)C3[C@]2(C)CC[C@H]2[C@H](C)[C@H](O)CC[C@]32C)/C1=C(/CCC=C(C)C)C(=O)O (stereo not given in full) | > 4 mM (inactive)
O=S1(=O)CCC(NCc2ccccc2)C1 (stereo not given) | > 4 mM (inactive)
Cc1cc(NC(=O)CSc2ccnc(=O)[nH]2)no1 | > 4 mM (inactive)
O=C(Nc1ccccc1F)c1ccncc1 | > 4 mM (inactive)
CSc1nnc(CN2CCSCC2)n1C | > 4 mM (inactive)
O=C1CC(N2CCC(O)CC2)C(=O)N1c1ccc(F)cc1 (stereo not given) | > 4 mM (inactive)
NC1=C([N+](=O)[O-])C(=O)c2ccccc21 | > 4 mM (inactive)
O=C(O)CCCC(=O)Nc1nccs1 | > 4 mM (inactive)
O=C(Nc1ccon1)c1ccc(Cl)s1 | > 4 mM (inactive)
Cn1cnc2c1c(=O)[nH]c(=O)n2C | > 4 mM (inactive)
Cc1cc(C)c(C#N)c(N2CCCC2)n1 | > 4 mM (inactive)
O=C1CC(=O)N2N=C(c3ccccc3)SC2=N1 | > 4 mM (inactive)
N#Cc1nc(-c2cccs2)oc1N1CCOCC1 | > 4 mM (inactive)
CC1(C)Cn2c(nnc2-c2ccccc2)S1 | > 4 mM (inactive)
CSc1nc(-c2ccccc2)ccc1C(N)=O | > 4 mM (inactive)
CN(C)S(=O)(=O)c1ccc(C(=O)NN)cc1 | > 4 mM (inactive)
CNC(=O)C(=O)Nc1c(C)cccc1C | > 4 mM (inactive)
CC[C@@]1(O)C(=O)OCc2c1cc1n(c2=O)Cc2cc3ccccc3nc2-1 | > 4 mM (inactive)
CNC(=O)COc1cccc2c1CCNC2=O | > 4 mM (inactive)
CN1CC(=O)Nc2ccc([N+](=O)[O-])cc2C1=O | > 4 mM (inactive)

Structure (SMILES) | Kd
Cn1c([O-])c([N+](C)(C)C)c(=O)n(C)c1=O | > 4 mM (inactive)
O=C(O)c1cc(O)c2c(c1)[C@@H]([C@H]1c3cc(C(=O)O)cc(O)c3C(=O)c3c(O[C@H]4O[C@H](CO)[C@@H](O)[C@H](O)[C@H]4O)cccc31)c1cccc(O[C@H]3O[C@H](CO)[C@@H](O)[C@H](O)[C@H]3O)c1C2=O | > 4 mM (inactive)
CNc1ccccc1C(=O)O | > 4 mM (inactive)
OCCOc1ccc(C2=NCCO2)cc1 | > 4 mM (inactive)
NC(=O)c1cccc2c1OCCO2 | > 4 mM (inactive)
O=C(CSC1=NCCS1)N1CCc2ccccc21 | > 4 mM (inactive)
Cc1c(C(=O)NC2=NCCS2)oc2ccccc12 | > 4 mM (inactive)
CC(=O)O[C@H]1C[C@@H](OC(C)=O)C(C)(C)C2C[C@@H](OC(C)=O)[C@@]3(C)C4=CC(=O)O[C@@H](c5ccoc5)[C@]4(C)CCC3[C@]21C (stereo not given in full) | > 4 mM (inactive)
OCc1ccc(N2CCOCC2)nc1 | > 4 mM (inactive)
OC[C@@H](O)[C@@H](O[C@@H]1O[C@H](CO)[C@@H](O)[C@H](O)[C@H]1O)[C@H](O)[C@@H](O)CO | > 4 mM (inactive)
COc1c(-c2coc3cc4c(cc3c2=O)CC(OC(C)=O)C(C)(C)O4)ccc2c1C=CC(C)(C)O2 (stereo not given) | > 4 mM (inactive)
CCC(=O)NC(=S)Nc1ccc(C(N)=O)cc1 | > 4 mM (inactive)
O=C(Nc1cccc(C(F)(F)F)c1)c1cccnc1 | > 4 mM (inactive)
CC(=O)O[C@H]1CC[C@@]2(C)C(CC[C@]3(C)C2C(=O)C=C2C4[C@@H](C)[C@H](C)CC[C@]4(C(=O)O)CC[C@]23C)C1(C)C (stereo not given in full) | > 4 mM (inactive)
CC(=O)Nn1c(=O)[nH]c2ccccc2c1=O | > 4 mM (inactive)
O=S1(=O)CCC(Nc2ccccc2)C1 (stereo not given) | > 4 mM (inactive)
Cc1cccc(C)c1NC(=O)CN1CCOCC1 | > 4 mM (inactive)
O=C(O)C1CN(Cc2ccccc2)CCO1 (stereo not given) | > 4 mM (inactive)
CCCn1cnn2c(=O)cc(C)nc12 | > 4 mM (inactive)
CSc1nc(=O)[nH]c2c1CCC2 | > 4 mM (inactive)
COc1cc2c(cc1-c1cc3cc4ccoc4cc3oc1=O)OCO2 | > 4 mM (inactive)
S=C(c1ccc(N2CCOCC2)cc1)N1CCCCC1 | > 4 mM (inactive)

Structure (SMILES) | Kd
CS(=O)(=O)N1CCN(C(=O)Cc2cccs2)CC1 | > 4 mM (inactive)
Cc1cc2nc(SCC(=O)O)nc(C)c2cc1C | > 4 mM (inactive)
CC1(C)C2CC(=O)[C@]3(C)C(CC[C@@]4(C)[C@H](c5ccoc5)OC(=O)[C@H]5O[C@]543)[C@@]2(C)C(=O)C[C@H]1O (stereo not given in full) | > 4 mM (inactive)
O=C(NCc1ccccc1)c1cnsn1 | > 4 mM (inactive)
Cn1c(=O)c2[nH]cnc2n(-c2ccccc2)c1=O | > 4 mM (inactive)
C[C@@H]1O[C@@H](O[C@H]2[C@@H](Oc3cc(O)c4c(c3)O[C@H](c3ccc(O)cc3)CC4=O)O[C@H](CO)[C@@H](O)[C@@H]2O)[C@H](O)[C@H](O)[C@H]1O | > 4 mM (inactive)
CCNC(CC(=O)Nc1ccc(F)cc1)C(=O)O (stereo not given) | > 4 mM (inactive)
OCc1ccc2c(c1)OCCO2 | > 4 mM (inactive)
CC(C)(C)CC(=O)NC1=NCCS1 | > 4 mM (inactive)
COC(=O)c1cc(-c2c(C)nn(-c3ccccc3)c2C)n[nH]1 | > 4 mM (inactive)
Cc1ccc(C)n1-c1ccc(C(=O)N2CCOCC2)cc1 | > 4 mM (inactive)
Cc1cc(C(=O)c2c(C)nn(C)c2Cl)n(C)n1 | > 4 mM (inactive)
Cc1cc(C(=O)NCc2ccco2)cs1 | > 4 mM (inactive)
Cc1ccccc1C(=O)Nn1cnnc1 | > 4 mM (inactive)
Cc1cc(N)n(C2CCOC(C)(C)C2)n1 (stereo not given) | > 4 mM (inactive)
COC(=O)c1scc(S(C)(=O)=O)c1-n1cccc1 | > 4 mM (inactive)
c1ccc(-c2nsc(N3CCCNCC3)n2)cc1 | > 4 mM (inactive)
CC(=O)Nc1cccc(NC(=O)c2ccco2)c1 | > 4 mM (inactive)
CC12CCC3C(CC3(C)C)C(C)(CCC1=O)O2 (stereo not given) | > 4 mM (inactive)
CCOC(=O)c1c(SC)nc(=O)[nH]c1C | > 4 mM (inactive)
CC1(C)NCCN2C(=O)CSC21 (stereo not given) | > 4 mM (inactive)
CC(=O)NC(NC(C)=O)c1ccccc1 | > 4 mM (inactive)

Structure (SMILES) | Kd
C=C1CCC(C2CC(=O)OC2=O)C(=O)CCC2C1CC2(C)C (stereo not given) | > 4 mM (inactive)
O=C1C2CC=CCC2C(=O)N1c1cccc(O)c1 (stereo not given) | > 4 mM (inactive)
Nc1ccc2c(c1)COc1ccccc1O2 | > 4 mM (inactive)
Cc1nc2[nH]onc2c2nccc(=O)c12 | > 4 mM (inactive)
Cc1ccccc1NC(=O)CC1SC(N)=NC1=O (stereo not given) | > 4 mM (inactive)
O=C(COc1ccccc1Cl)N1CCCC1 | > 4 mM (inactive)
N/C(=N/O)C1COc2ccccc2O1 (stereo not given) | > 4 mM (inactive)
O=C1CNC(=O)/C1=C/c1ccc(O)cc1 | > 4 mM (inactive)
C[C@@H]1CCC2[C@](C)(CO)[C@@H](O)CC[C@]2(C)[C@@]12CC[C@@](CO)(CCO)O2 (stereo not given in full) | > 4 mM (inactive)
Cc1ccc(-c2c(C)n([O-])c(C)c(C)[n+]2=O)cc1 | > 4 mM (inactive)
CCOc1ccc(N2C(=O)CCC2=O)cc1 | > 4 mM (inactive)
NC1=NC(=O)/C(=C\c2ccco2)S1 | > 4 mM (inactive)
CC(=O)Oc1ccc(O)cc1 | > 4 mM (inactive)
O=C(NC1CC1)c1ccccc1[N+](=O)[O-] | > 4 mM (inactive)
O=C(Nc1ccc2c(c1)OCCO2)c1ccncc1 | > 4 mM (inactive)
COn1c(=O)c(-c2ccco2)[n+]([O-])c2ccccc21 | > 4 mM (inactive)
COc1cc(/C=C2/NC(=S)NC2=O)cc(Cl)c1O | > 4 mM (inactive)
Nc1ncnc(NCCOCCO)c1[N+](=O)[O-] | > 4 mM (inactive)
O=C(CC1Nc2ccccc2NC1=O)Nc1ccc(O)cc1 (stereo not given) | > 4 mM (inactive)
CC(C)=CCCC1(C)C=Cc2c(O)c3c(c(CC=C(C)C)c2O1)OC12C(=CC4CC1C(C)(C)OC2(C/C=C(/C)C(=O)O)C4=O)C3=O (stereo not given) | > 4 mM (inactive)
CC(=O)Nc1cccc(NC(=O)c2cccnc2)c1 | > 4 mM (inactive)
O=C1O[C@H](C(O)CO)C(O)=C1O (stereo not given in full) | > 4 mM (inactive)
